Measured values taken from US10955421B2, “Detection of membrane proteins” (Oxford University Innovation Limited, priority 2017, dated 2021).
One block for each compound: values may come before it.

Key:
[1] = tested on: human P2Y1 purinergic receptor (P2Y1R); assay: Native mass spectrometry of P2Y1R ligand binding in Fos-Choline-16
Description: P2Y1R and P2Y1R-MRS2500 complex were prepared as described in Zhang et al., Nature, 2015, 520, 317.
(§1) Purified GPCRs were buffer exchanged into 50-200 mM ammonium acetate containing Fos-Choline detergents at 2 times critical micelle concentration (CMC) by using Bio-Spin size exclusion spin column (Bio-rad) prior to mass spectrometer analysis. Detergent exchange could be also performed by size exclusion chromatography equipped with FPLC system. Protein samples were fractionized by the size exclusion columns equilibrated with 50-200 mM ammonium acetate containing Fos-choline detergents at 2 times CMC, and the protein fractions were collected and concentrated by centrifugation-based protein concentrators Vivaspin.
The measurement of GPCRs was performed on a modified Synapt G1 (Waters) or a modified Q-Exactive (Thermo) mass spectrometer. The data in Examples 2 and 4 were obtained using a Q-Exactive mass spectrometer, whereas the data in Example 3 were obtained using a Synapt G1 mass spectrometer.
The Q-Exactive mass spectrometer was set up according to Gault et al. (Nat. Methods 13, 333-336, 2016). Briefly, a gentle voltage gradient was applied (injection flatapole, inter flatapole, bent flatapole, transfer multipole: 7.9, 6.94, 5.9, 4 V respectively). The acceleration voltage applied in HCD cell was optimized for GPCRs (60-150 V) to remove the detergent micelles from protein ions. Spectra were acquired with ten microscans and the noise level parameter of 3 was applied. Backing pressure was maintained at 1.05-1.3×10^−9 mBar to allow better transmission of GPCR ions.
High-resolution MS was used to probe the drug/ligand interactions of human P2Y1R purified from insect cells. By controlled application of collisional activation, intact P2Y1R was liberated from its detergent micelle, preserving the non-covalent interactions formed in solution. The phosphate-containing detergent of Example 1 (Fos-16) was used in these experiments.

[2] = molecular target: T1, NTR1 (Rattus norvegicus, UniProt P20789); assay: Detergent screening by neurotensin-binding assay (BODIPY-NT8-13); settings: BODIPY-NT8-13 bound to NTR1 in detergent extract, room temperature, 1 hr (FIG. 1C)
T1 sequence (P20789 whole entry, the tested form may be a part): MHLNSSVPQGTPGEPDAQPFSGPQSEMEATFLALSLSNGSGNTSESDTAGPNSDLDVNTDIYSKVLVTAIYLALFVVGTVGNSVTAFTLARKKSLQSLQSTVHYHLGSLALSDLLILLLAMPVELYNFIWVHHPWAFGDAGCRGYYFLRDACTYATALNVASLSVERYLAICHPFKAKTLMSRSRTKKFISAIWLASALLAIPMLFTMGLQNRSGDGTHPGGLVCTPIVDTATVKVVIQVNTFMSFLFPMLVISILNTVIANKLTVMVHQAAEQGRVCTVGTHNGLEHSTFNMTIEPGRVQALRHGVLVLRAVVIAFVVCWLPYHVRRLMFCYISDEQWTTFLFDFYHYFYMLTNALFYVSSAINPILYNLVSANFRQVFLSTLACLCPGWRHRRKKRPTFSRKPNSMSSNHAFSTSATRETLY
Description: (§2) The gene fragment of rat NTR1 (wild-type, 1-424) with exogenous c-terminal Flag- and His-tag was constructed into modified pHLsec vector for transient protein overexpression. Plasmids were transfected into HEK293T cells via a liposome-based method with Lipofectamine 2000 transfection reagent and the cells were harvested 24 hrs after transfection for further experiments.
Protein extract from HEK293T cells with NTR1 overexpression was incubated with BODIPY-labelled neurotensin 8-13 (BODIPY-NT8-13) at room temperature for 1 hr. The unbound BODIPY-NT8-13 was removed by Bio-Spin size exclusion spin column (Bio-rad) and the fluorescent signal of BODIPY-NT8-13 bound to receptor was detected by fluorescence microplate reader.
Various detergents were assessed for their ability to preserve the conformation and activity of NTR1. The detergents assessed were: (1) n-dodecyl-β-D-maltoside (DDM); (2) n-undecyl-β-D-maltoside (UDM); (3) n-nonyl-β-D-glucopyranoside (NG); (4) n-octyl-β-D-glucopyranoside (OG); (5) octyl glucose neopentyl glycol (OGNG); (6) n-octyl-β-D-thioglucopyranoside (OTG); (7) tetraethylene glycol monooctyl ether (C8E4); (8) hexaethylene glycol monodecyl ether (C10E6); (9) polyethylene glycol tert-octylphenyl ether (Triton X-100); (10) lauryldimethylamine-N-oxide (LDAO); and (11) hexadecylphosphocholine (Fos-Choline-16).

[3] = molecular target: T1, NTR1; assay: Detergent screening by western blotting (receptor aggregation); settings: NTR1 solubilised from HEK293T cells in 1% detergent; compared with the other detergents tested (FIGS. 1A and B)
Description: as §2
HEK293T cells with NTR1 overexpression were lysed in lysis buffer (100 mM sodium phosphate, pH 7.2, 150 mM NaCl, 10% glycerol, 1× EDTA-free protease inhibitor cocktail from Roche) containing 1% various detergents for screening. Cell lysate was harvested after pelleting down the debris by centrifugation, and protein concentration was measured by Pierce 660 nm protein assay reagent (Pierce). Equal amounts of protein extract in different detergents were applied for western blotting to detect NTR1 by using an anti-His tag antibody. Semi-quantification was performed by Gel-pro software to quantify the protein amount and relative ratio of protein aggregation.
Various detergents were assessed for their ability to preserve the conformation and activity of NTR1. […]

[4] = molecular target: T1, NTR1; assay: Native mass spectrometry of PIP2 binding to NTR1 in Fos-Choline-16; settings: after incubation of PIP2 and NTR1 in Fos-Choline-16 (FIG. 6A)
Description: as §1
PIP2 powder (Avanti) was dissolved into solvent containing chloroform, methanol and H2O with volume ratio of 20:9:1. The aliquoted PIP2 solution was dried out by gas-assisted evaporation and re-suspended into 50-200 mM ammonium acetate containing 0.00106% Fos-Choline-16, followed by sonication in water bath for 30 mins.
The measurement of GPCRs was performed on a modified Synapt G1 (Waters) or a modified Q-Exactive (Thermo) mass spectrometer. The data in Examples 2 and 4 were obtained using a Q-Exactive mass spectrometer, whereas the data in Example 3 were obtained using a Synapt G1 mass spectrometer. […]

[5] = 1:0.5 molar ratio of protein to ATP (FIG. 3B)
[6] = endogenous nucleotide, purified P2Y1R, UniDec deconvolution (FIG. 2A)

ADP-bound receptor converted into the ATP bound state [1, 5]: ~30% | apo receptor converted into the ATP bound state [1, 5]: around 80% | displacement of MRS2500 from the P2Y1R-MRS2500 complex ([1]; 1:2 molar P2Y1R:ATP, 30 min incubation at 37° C. (FIG. 4)): complete displacement of MRS2500 | further decrease of ADP binding ([1]; 2 molar excess of ATP (FIG. 3C)): 40% | ATP-binding ratio of phosphorylated P2Y1R [1, 6]: 39.6% | ATP-binding ratio of receptor without phosphorylation [1, 6]: 41.5%
Compound: Nc1ncnc2c1ncn2[C@@H]1O[C@H](COP(=O)(O)OP(=O)(O)OP(=O)(O)O)[C@@H](O)[C@H]1O [ATP, adenosine 5′-triphosphate]

ligand binding activity [2]: substantially preserved
Compound: CCCCCCCCCCCCCCCCOP(=O)([O-])OCC[N+](C)(C)C [Fos-Choline-16, n-hexadecylphosphocholine]
receptor aggregation and oligomerisation [3]: less receptor aggregation and oligomerisation

Compound: CNc1nc(I)nc2c1ncn2[C@H]1C[C@H](OP(=O)(O)O)[C@]2(COP(=O)(O)O)C[C@H]12 [MRS2500, (1′R2′S,4′S,5′S)-4-(2-iodo-6-methylamino-purine-9-yl)-1-[(phosphato)methyl] 2(phosphato)bicycle[3.1.0]-hexane]
ADP binding in the presence of the drug ([1]; P2Y1R purified in the presence of MRS2500): No ADP binding was detected | percentage of interaction with P2Y1R ([1]; P2Y1R purified in the presence of MRS2500 (FIG. 2B)): 100 percentage

Compound: PIP2
PIP2 binding of NTR1 [4]: Multiple binding
